Series [1] can be described thus: Storage stability test of salt forms (HPLC). The format is physicochemical. How it is done: Storage stability tests at 25° C. and at 60° C. were conducted with the different salt forms of the (Lys-Cys) 2. Stability was measured with a HPLC method.
Series [2] deals with CHO-K1 cells. The experiment in a line: In vitro cytotoxicity / viability assay (MTS) on CHO-K1 cells. The format is cell-based, Chinese hamster. The settings on record: high concentration (tested at 1 and 10 mM), 24 h with dipeptide, samples adjusted to pH 7, vs control medium without (Lys-Cys)2. The protocol:
(§1) • The assay was performed with human bone marrow stromal cells, mesenchymal stem cells (MSC) or Chinese hamster ovary cells (subclone K1), respectively. In a first step, the cells were seeded in a transparent 96-well cell culture plate and incubated for 24 h in a CO2-Incubator (37° C., 5% CO2, 95% humidity) at a cell density of 10.000 cells/well and in a final volume of 100 μl/well. After the resting time of 24 hours the supernatants were discarded, and prepared dipeptide test compounds were added to the cells in a final volume of 100 μl/well. The control was rested in medium without dipeptide.
(§2) All samples were dissolved directly in associated cell culture medium. pH values of the samples were adjusted to pH 7 in advance, to exclude an influence on the cell viability due to a potentially lower pH value.
(§3) Different salt forms of (Lys-Cys)2 were tested in two different concentrations and each sample was tested in triplicates. […]
(§4) As a result of the reduction of MTS into a formazan product by metabolically active cells, an absorbance signal of formazan could be measured at a wavelength of 490 nm in a multiplate reader. […]
(§5) CHO-K1 as well as MSC cells were cultured for 24 hours before the addition of different (Lys-Cys)2 salts. […] After 24-hour cultivation with the dipeptides, the cell viability was assessed using the CellTiter 96® AQueous Non-Radioactive Cell Proliferation Assay (MTS).

For series [3], the system named is human bone marrow stromal cells, mesenchymal stem cells (MSC). Put plainly: In vitro cytotoxicity / viability assay (MTS) on mesenchymal stem cells. The settings on record: high concentration (tested at 1 and 10 mM), 24 h with dipeptide, samples adjusted to pH 7, vs control medium without (Lys-Cys)2. The format is cell-based. How it is done: as §1, §2, §3, §4, §5

Structures are written as SMILES. Counter-ions that a name gives are not always drawn. Like-named read-outs stand apart in the source and are kept apart here. Positions of bridges follow the written chain, without caps; N, C: chain ends. Residues, ends and D or L forms follow the SMILES beside them. Chains are numbered I, II in the order given.

Consider `Cl.Cl.Cl.Cl.NCCCC[C@H](N)C(=O)N[C@@H](CSSC[C@H](NC(=O)[C@@H](N)CCCCN)C(=O)O)C(=O)O` [4 HCl form, N,N′-di-L-lysyl-L-cystine tetrahydrochloride] (I: H-Lys-Cys-OH / II: H-Lys-Cys-OH; disulfide I:2-II:2), for which the storage stability entry in series [1] is “significantly more stable”. In addition, the cell viability result in series [2] is on record as “reduced cell viability”.

Take `NCCCC[C@H](N)C(=O)N[C@@H](CSSC[C@H](NC(=O)[C@@H](N)CCCCN)C(=O)O)C(=O)O` [2 HCl form, N,N′-di-L-lysyl-L-cystine dihydrochloride] (I: H-Lys-Cys-OH / II: H-Lys-Cys-OH; disulfide I:2-II:2): the storage stability entry in series [1] (storage at 25° C. and at 60° C., HPLC, compared with the chloride free, basic form) is on record as “significantly more stable”. For the same compound, the cell viability result in series [3] and in series [2] was “improved cell viability” in each case.

(Values after US20240425814A1, “SALTS OF DIPEPTIDES AND THEIR USES IN CELL CULTURE” (Evonik Operations GmbH, priority 2021, published 2024).)
